Where a name gives a salt, the structure may show the parent alone.
molecular target: HPK full length, T165E S171E (Homo sapiens (Human), UniProt Q92918, S171E/T165E); experiment: HPK1-FL HTRF enzymatic assay ("HTRF"); format: biochemical; settings: ATP 1 mM, read-out: HPK1 Ki
In short: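 Full-length HPK1 (T165E/S171E) was preincubated 30 min with compound, then reacted 60 min with biotin-SLP-76 and 1 mM ATP. Phospho-SLP-76 was detected by HTRF (Eu-anti-pSLP76 antibody, SA-XL665) after a further 60 min.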

Chain of HPK full length, T165E S171E (Q92918 whole entry T165E/S171E, looked up): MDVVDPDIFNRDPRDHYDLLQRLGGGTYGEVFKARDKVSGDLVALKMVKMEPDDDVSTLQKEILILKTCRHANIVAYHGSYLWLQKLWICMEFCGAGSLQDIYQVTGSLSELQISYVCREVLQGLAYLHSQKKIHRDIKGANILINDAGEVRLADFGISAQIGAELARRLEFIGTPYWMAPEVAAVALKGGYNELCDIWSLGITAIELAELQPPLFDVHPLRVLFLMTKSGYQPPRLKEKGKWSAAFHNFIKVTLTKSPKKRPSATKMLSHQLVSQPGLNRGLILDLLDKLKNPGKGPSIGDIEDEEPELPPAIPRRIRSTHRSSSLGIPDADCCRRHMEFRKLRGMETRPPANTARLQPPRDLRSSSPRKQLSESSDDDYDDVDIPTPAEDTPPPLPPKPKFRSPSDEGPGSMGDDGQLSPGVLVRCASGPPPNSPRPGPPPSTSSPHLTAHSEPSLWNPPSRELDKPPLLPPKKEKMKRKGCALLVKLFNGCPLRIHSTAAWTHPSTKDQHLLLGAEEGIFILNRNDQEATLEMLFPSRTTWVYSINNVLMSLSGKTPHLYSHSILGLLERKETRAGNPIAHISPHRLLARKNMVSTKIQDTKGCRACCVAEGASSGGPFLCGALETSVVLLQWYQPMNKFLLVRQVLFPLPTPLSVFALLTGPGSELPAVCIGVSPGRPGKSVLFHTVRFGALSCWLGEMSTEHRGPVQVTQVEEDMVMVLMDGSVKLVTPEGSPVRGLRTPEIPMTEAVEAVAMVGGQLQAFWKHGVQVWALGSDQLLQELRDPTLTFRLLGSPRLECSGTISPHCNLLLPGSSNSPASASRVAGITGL

SMILES	Ki [nM]
Cc1c(-c2cc3cc(NC(=O)OC4CCN(C)CC4)ncc3c(N)c2F)cnc2c1NCCO2 [Compound 407, 1-Methylpiperidin-4-yl (8-amino-7-fluoro-6-(8-methyl-2,3-dihydro-1H-pyrido[2,3-b][1,4]oxazin-7-yl)isoquinolin-3-yl)carbamate]	0.03
Cc1c(-c2cc3cc(NC(=O)O[C@H]4CCC(=O)N(C)C4)ncc3c(N)c2F)cnc2c1NCCO2 [Compound 409a, (S)-1-Methyl-6-oxopiperidin-3-yl (8-amino-7-fluoro-6-(8-methyl-2,3-dihydro-1H-pyrido[2,3-b][1,4]oxazin-7-yl)isoquinolin-3-yl)carbamate]	0.053
Cc1c(-c2cc3cc(NC(=O)O[C@@H]4CCN(C)C4)ncc3c(N)c2F)cnc2c1NCCO2 [Compound 411b, (R)-1-Methylpyrrolidin-3-yl (8-amino-7-fluoro-6-(8-methyl-2,3-dihydro-1H-pyrido[2,3-b][1,4]oxazin-7-yl)isoquinolin-3-yl)carbamate]	0.2
Cc1c(-c2cc3cc(NC(=O)OC4CCOCC4)ncc3c(N)c2F)cnc2c1NCCC2O (stereo not shown) [Compound 413, Tetrahydro-2H-pyran-4-yl (8-amino-7-fluoro-6-(8-hydroxy-4-methyl-5,6,7,8-tetrahydro-1,5-naphthyridin-3-yl)isoquinolin-3-yl)carbamate]	0.65
Cc1c(-c2cc3cc(NC(=O)O[C@H]4CCCN(C)C4)ncc3c(N)c2F)cnc2c1NCCO2 [Compound 416b, (5)-1-Methylpiperidin-3-yl (8-amino-7-fluoro-6-(8-methyl-2,3-dihydro-1H-pyrido[2,3-b][1,4]oxazin-7-yl)isoquinolin-3-yl)carbamate]	0.075
Cc1c(-c2cc3cc(NC(=O)OC4CC5(C4)CN(C)C5)ncc3c(N)c2F)cnc2c1NCCO2 [Compound 417, 2-Methyl-2-azaspiro[3.3]heptan-6-yl (8-amino-7-fluoro-6-(8-methyl-2,3-dihydro-1H-pyrido[2,3-b][1,4]oxazin-7-yl)isoquinolin-3-yl)carbamate]	< 0.013
Cc1c(-c2cc3cc(NC(=O)OC4CN(C(C)C)C4)ncc3c(N)c2F)cnc2c1NCCO2 [Compound 419, (1-Isopropylazetidin-3-yl) N-[8-amino-7-fluoro-6-(8-methyl-2,3-dihydro-1H-pyrido[2,3-b][1,4]oxazin-7-yl)-3-isoquinolyl]carbamate]	0.061
Cc1c(-c2cc3cc(NC(=O)OC4CN(CC(F)(F)F)C4)ncc3c(N)c2F)cnc2c1NCCO2 [Compound 420, 1-(2,2,2-Trifluoroethyl)azetidin-3-yl (8-amino-7-fluoro-6-(8-methyl-2,3-dihydro-1H-pyrido[2,3-b][1,4]oxazin-7-yl)isoquinolin-3-yl)carbamate]	< 0.013
Cc1c(-c2cc3cc(NC(=O)OC4CCN(C5COC5)CC4)ncc3c(N)c2F)cnc2c1NCCO2 [Compound 421, 1-(Oxetan-3-yl)piperidin-4-yl (8-amino-7-fluoro-6-(8-methyl-2,3-dihydro-1H-pyrido[2,3-b][1,4]oxazin-7-yl)isoquinolin-3-yl)carbamate]	< 0.013
Cc1c(-c2cc3cc(NC(=O)OC4CCN(CC(F)(F)F)CC4)ncc3c(N)c2F)cnc2c1NCCO2 [Compound 422, 1-(2,2,2-Trifluoroethyl)piperidin-4-yl (8-amino-7-fluoro-6-(8-methyl-2,3-dihydro-1H-pyrido[2,3-b][1,4]oxazin-7-yl)isoquinolin-3-yl)carbamate]	0.023
Cc1c(-c2cc3cc(NC(=O)OC4CC5(CCN(C)CC5)C4)ncc3c(N)c2F)cnc2c1NCCC2 [Compound 423, (7-Methyl-7-azaspiro[3.5]nonan-2-yl) N-[8-amino-7-fluoro-6-(4-methyl-5,6,7,8-tetrahydro-1,5-naphthyridin-3-yl)-3-isoquinolyl]carbamate]	< 0.013
CC(=O)N1CC2(CC(OC(=O)Nc3cc4cc(-c5cnc6c(c5C)NCCO6)c(F)c(N)c4cn3)C2)C1 [Compound 424, 2-Acetyl-2-azaspiro[3.3]heptan-6-yl (8-amino-7-fluoro-6-(8-methyl-2,3-dihydro-1H-pyrido[2,3-b][1,4]oxazin-7-yl)isoquinolin-3-yl)carbamate]	< 0.013
Cc1c(-c2cc3cc(NC(=O)OC4CC5(C4)CN(C)C5)ncc3c(N)c2F)cnc2c1NCCC2 [Compound 425, 2-Methyl-2-azaspiro[3.3]heptan-6-yl (8-amino-7-fluoro-6-(4-methyl-5,6,7,8-tetrahydro-1,5-naphthyridin-3-yl)isoquinolin-3-yl)carbamate]	< 0.013
CC(=O)N1CC(OC(=O)Nc2cc3cc(-c4cnc5c(c4C)NCCO5)c(F)c(N)c3cn2)C1 [Compound 426, (1-Acetylazetidin-3-yl) N-[8-amino-7-fluoro-6-(8-methyl-2,3-dihydro-1H-pyrido[2,3-b][1,4]oxazin-7-yl)-3-isoquinolyl]carbamate]	< 0.013
Cc1c(-c2cc3cc(NC(=O)OC4CC5(CCN(C)CC5)C4)ncc3c(N)c2F)cnc2c1NCCO2 [Compound 427, 7-Methyl-7-azaspiro[3.5]nonan-2-yl (8-amino-7-fluoro-6-(8-methyl-2,3-dihydro-1H-pyrido[2,3-b][1,4]oxazin-7-yl)isoquinolin-3-yl)carbamate]	< 0.013
Cc1c(-c2cc3cc(NC(=O)OC4CC5(CCN(C)C5)C4)ncc3c(N)c2F)cnc2c1NCCO2 (stereo not shown) [Compound 428, 6-Methyl-6-azaspiro[3.4]octan-2-yl (8-amino-7-fluoro-6-(8-methyl-2,3-dihydro-1H-pyrido[2,3-b][1,4]oxazin-7-yl)isoquinolin-3-yl)carbamate]	< 0.013
CC(=O)N1CC(OC(=O)Nc2cc3cc(-c4cnc5c(c4C)NCCC5)c(F)c(N)c3cn2)C1 [Compound 429, 1-Acetylazetidin-3-yl (8-amino-7-fluoro-6-(4-methyl-5,6,7,8-tetrahydro-1,5-naphthyridin-3-yl)isoquinolin-3-yl)carbamate formic acid]	0.028
Cc1c(-c2cc3cc(NC(=O)OC4CC5(CCN(C6COC6)CC5)C4)ncc3c(N)c2F)cnc2c1NCCC2 [Compound 430, 7-(Oxetan-3-yl)-7-azaspiro[3.5]nonan-2-yl (8-amino-7-fluoro-6-(4-methyl-5,6,7,8-tetrahydro-1,5-naphthyridin-3-yl)isoquinolin-3-yl)carbamate]	< 0.013
Cc1c(-c2cc3cc(NC(=O)OC4C5CC4CN(C)C5)ncc3c(N)c2F)cnc2c1NCCO2 (stereo not shown) [Compound 431, 3-Methyl-3-azabicyclo[3.1.1]heptan-6-yl (8-amino-7-fluoro-6-(8-methyl-2,3-dihydro-1H-pyrido[2,3-b][1,4]oxazin-7-yl)isoquinolin-3-yl)carbamate]	2.3
Cc1c(-c2cc3cc(NC(=O)O[C@H]4[C@@H]5CN(C)C[C@@H]54)ncc3c(N)c2F)cnc2c1NCCO2 [Compound 432a, (1R,5S,6s)-3-Methyl-3-azabicyclo[3.1.0]hexan-6-yl (8-amino-7-fluoro-6-(8-methyl-2,3-dihydro-1H-pyrido[2,3-b][1,4]oxazin-7-yl)isoquinolin-3-yl)carbamate]	< 0.013
Cc1c(-c2cc3cc(NC(=O)OC4CN(CC(F)F)C4)ncc3c(N)c2F)cnc2c1NCCO2 [Compound 434, 1-(2,2-Difluoroethyl)azetidin-3-yl (8-amino-7-fluoro-6-(8-methyl-2,3-dihydro-1H-pyrido[2,3-b][1,4]oxazin-7-yl)isoquinolin-3-yl)carbamate]	< 0.013
Cc1c(-c2cc3cc(NC(=O)OC4CCN(C)CC4(C)C)ncc3c(N)c2F)cnc2c1NCCO2 (stereo not shown) [Compound 435, (1,3,3-Trimethyl-4-piperidyl) N-[8-amino-7-fluoro-6-(8-methyl-2,3-dihydro-1H-pyrido[2,3-b][1,4]oxazin-7-yl)-3-isoquinolyl]carbamate]	0.187
Cc1c(-c2cc3cc(NC(=O)OC(C)C)ncc3c(N)c2F)cnc2c1NCCO2 [Compound 436, Isopropyl (8-amino-7-fluoro-6-(8-methyl-2,3-dihydro-1H-pyrido[2,3-b][1,4]oxazin-7-yl)isoquinolin-3-yl)carbamate]	0.014
Cc1c(-c2cc3cc(NC(=O)OC4CC5(C4)CN(C4COC4)C5)ncc3c(N)c2F)cnc2c1NCCO2 [Compound 443, 2-(Oxetan-3-yl)-2-azaspiro[3.3]heptan-6-yl (8-amino-7-fluoro-6-(8-methyl-2,3-dihydro-1H-pyrido[2,3-b][1,4]oxazin-7-yl)isoquinolin-3-yl)carbamate]	< 0.013
Cc1c(-c2cc3cc(NC(=O)O[C@@H]4CCN(C5COC5)C[C@@H]4F)ncc3c(N)c2F)cnc2c1NCCO2 [Compound 445c, (3S,4R)-3-Fluoro-1-(oxetan-3-yl)piperidin-4-yl (8-amino-7-fluoro-6-(8-methyl-2,3-dihydro-1H-pyrido[2,3-b][1,4]oxazin-7-yl)isoquinolin-3-yl)carbamate]	0.015
Cc1c(-c2cc3cc(NC(=O)O[C@H]4CCN(C5COC5)C[C@H]4F)ncc3c(N)c2F)cnc2c1NCCO2 [Compound 445d, (3R,4S)-3-Fluoro-1-(oxetan-3-yl)piperidin-4-yl (8-amino-7-fluoro-6-(8-methyl-2,3-dihydro-1H-pyrido[2,3-b][1,4]oxazin-7-yl)isoquinolin-3-yl)carbamate]	< 0.013
Cc1c(-c2cc3cc(NC(=O)O[C@H]4C[C@H](N(C)C)C4)ncc3c(N)c2F)cnc2c1NCCO2 [Compound 447a, (1r,3r)-3-(Dimethylamino)cyclobutyl (8-amino-7-fluoro-6-(8-methyl-2,3-dihydro-1H-pyrido[2,3-b][1,4]oxazin-7-yl)isoquinolin-3-yl)carbamate hydrochloride]	< 0.013
Cc1c(-c2cc3cc(NC(=O)OCC4(F)CN(C)C4)ncc3c(N)c2F)cnc2c1NCCO2 [Compound 450, (3-Fluoro-1-methyl-azetidin-3-yl)methyl N-[8-amino-7-fluoro-6-(8-methyl-2,3-dihydro-1H-pyrido[2,3-b][1,4]oxazin-7-yl)-3-isoquinolyl]carbamate]	0.13
